Results reported in US9259487B2, “Transgenic non-human animal model of neurodegenerative disease” (Nagasaki University, priority 2011, dated 2016).

Experiments:
Format in all cases: in vivo, mouse
[1] = system: GgFF mice; test: Rotarod dwelling time (30 rpm, 40 rpm) of aged mice deficient in prothymosin α in striatum
[2] = system: GgFF mice; test: Clasping reflex score of aged mice deficient in prothymosin α in striatum
[3] = system: GgFF mice; test: Survival ratio after 15-min transient middle cerebral artery occlusion (tMCAO); settings: 8- to 16-week-old GgFF mice, administration group
[4] = system: GgFF mice; test: Rotarod dwelling time (motility function) after 15-min tMCAO; settings: 8- to 16-week-old GgFF mice, selegiline 10 mg/kg intraperitoneally after 15-min tMCAO, 6 rpm and 12 rpm
[5] = system: GgFF mice; test: Clinical score (motility dysfunction) after 15-min tMCAO; settings: 8- to 16-week-old GgFF mice, selegiline 10 mg/kg intraperitoneally after 15-min tMCAO

Cl.Oc1cc2c(cc1O)C(c1ccccc1)CNCC2 (racemic) [SKF38393, (±)-1-phenyl-2,3,4,5-tetrahydro-1H-3-benzazepine-7,8-diol HCl]
motility dysfunction in the Rotarod test ([1]; 20- to 30-week-old GgFF mice, 5 hr after intraperitoneal administration of 30 mg/kg, 30 rpm, vs vehicle): significantly improved

CC12CC3CC(C)(C1)CC(N)(C3)C2 [memantine]
symptom (motility function by Rotarod), chronic administration ([1]; aged GgFF mice, memantine 10 mg/kg intraperitoneally every day from Day 1 to Day 7, 30 rpm and 40 rpm): remarkable recovery | motility function, acute (within 24 hr) ([1]; aged GgFF mice, memantine 10 mg/kg intraperitoneally, 24 hr after the administration): most recovered | symptom (clasping scores), chronic administration ([2]; memantine 10 mg/kg intraperitoneally every day from Day 1 to Day 7): remarkable recovery

CCCN[C@H]1CCc2nc(N)sc2C1 [pramipexole]
survival ratio ([3]; pramipexole 0.01 mg/kg intraperitoneally after 15-min tMCAO): 75%

C#CCN(C)[C@H](C)Cc1ccccc1 [selegiline]
motility function (dwelling time on Rotarod, Latency to fall) vs non-administration group [4]: improved motility function | motility dysfunction (Clinical score) [5]: remarkably improved | dwelling time on the Rotarod vs before administration, acute (within 24 hr) ([1]; aged GgFF mice, selegiline 10 mg/kg intraperitoneally, 30 rpm and 40 rpm): tended to be long | survival ratio ([3]; selegiline 10 mg/kg intraperitoneally after 15-min tMCAO): markedly-improved | clasping scores vs before administration, acute (within 24 hr) ([2]; selegiline 10 mg/kg intraperitoneally): tended to improve
